Measured values reported in patent US20260008760A1, “DIPEPTIDYL PEPTIDASE 1 INHIBITORS AND USES THEREOF” (Insmed Incorporated, priority 2024, published 2026).
Values joined by “and” are separate entries in the source; they are usually repeats but may differ in a detail not shown here. Equal entries are not always repeated. Where two headings read alike, the source gives them in different places.

How the values were obtained:
human DPP1 enzyme [1] = molecular target: T1, human DPP1 enzyme (Homo sapiens, UniProt P53634); assay: Human DPP1 Enzyme Single-Point Percent Inhibition Testing (HL-60 lysate); type: biochemical; parameters: A crude lysate of HL-60 cells (ATCC; Manassas, VA) was used as a source of human DPP1 enzyme; host or cells: HL-60 cells (crude lysate); settings: final compound concentration of 10 nM, 400 μM H-Gly-Arg-AMC, n = 1
Summary of the method: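 Enzyme source was HL-60 cell lysate in MES pH 6.0 buffer with NaCl and DTT, pre-incubated 10 min at 37° C with 10 nM compound (final, 1% DMSO). Cleavage of 400 μM H-Gly-Arg-AMC was followed at 350/450 nm over 90 min at 37° C, and percent inhibition was taken against vehicle wells.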
Target sequence in this assay (P53634 25-463): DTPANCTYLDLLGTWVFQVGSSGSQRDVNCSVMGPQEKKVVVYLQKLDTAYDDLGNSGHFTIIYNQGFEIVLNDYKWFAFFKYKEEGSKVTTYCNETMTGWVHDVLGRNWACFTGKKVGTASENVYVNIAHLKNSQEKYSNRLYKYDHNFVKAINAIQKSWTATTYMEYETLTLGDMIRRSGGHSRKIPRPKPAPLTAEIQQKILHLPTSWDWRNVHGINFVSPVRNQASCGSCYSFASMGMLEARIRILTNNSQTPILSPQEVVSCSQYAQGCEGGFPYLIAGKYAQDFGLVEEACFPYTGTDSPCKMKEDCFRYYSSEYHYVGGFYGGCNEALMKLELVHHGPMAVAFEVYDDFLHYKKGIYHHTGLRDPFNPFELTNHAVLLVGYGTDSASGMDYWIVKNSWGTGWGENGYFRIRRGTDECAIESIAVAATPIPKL

DPP1 in HL-60 cells [2] = molecular target: T2, DPP1 in HL-60 cells (Homo sapiens, UniProt P53634); assay: DPP1 Cell IC50 assay; type: cell-based; parameters: host or cells: HL-60 cells; settings: 60 min pre-incubation, H-Gly-Phe-AFC substrate, average of n runs
Summary of the method: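 HL-60 cells in PBS (5×10^5 live cells per mL) pre-incubated with compound (0.5% DMSO) 60 min at 37° C, 5% CO2, then H-Gly-Phe-AFC substrate (500 μM stock) added for 30 min. Fluorescence at 400/505 nm; % inhibition vs vehicle wells, IC50 from four-parameter logistic fit.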

DPP1 in HL-60 cells [3] = molecular target: T2, DPP1 in HL-60 cells; assay: DPP1 Cell Single-Point Percent Inhibition Testing; type: cell-based; parameters: host or cells: HL-60 cells; settings: final compound concentration 5 nM, n = 1
Summary of the method: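 HL-60 cells in unsupplemented RPMI preincubated 60 min at 37 °C with test article (5 nM final, 0.1% DMSO), then given cell-permeable H-Gly-Phe-AFC (100 μM final) for 30 min. Fluorescence at 400/505 nm; percent inhibition versus vehicle after subtracting cell-free background and 10 μM brensocatib non-specific signal.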

human DPP1 enzyme [4] = molecular target: T1, human DPP1 enzyme; assay: Human DPP1 Enzyme IC50 Assay; type: biochemical; parameters: was first proteolytically processed into its mature form using recombinant human cathepsin L; purchased R&D Systems
Summary of the method: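 Recombinant human DPP1, pre-activated with cathepsin L (pH 4.5), was preincubated with compound 10 min at 37 °C in MES pH 6.0, 50 mM NaCl, 5 mM DTT, 1% DMSO. Cleavage of 400 μM (final) H-Gly-Arg-AMC followed by fluorescence (350/450 nm) over 90 min at 37 °C; IC50 from four-parameter logistic fit versus no-compound control.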
Target sequence in this assay (P53634 25-134 limits assumed): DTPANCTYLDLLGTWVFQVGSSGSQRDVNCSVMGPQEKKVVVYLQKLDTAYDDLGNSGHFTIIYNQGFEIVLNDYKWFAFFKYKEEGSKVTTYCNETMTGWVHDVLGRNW
Target sequence in this assay (P53634 231-394 limits assumed): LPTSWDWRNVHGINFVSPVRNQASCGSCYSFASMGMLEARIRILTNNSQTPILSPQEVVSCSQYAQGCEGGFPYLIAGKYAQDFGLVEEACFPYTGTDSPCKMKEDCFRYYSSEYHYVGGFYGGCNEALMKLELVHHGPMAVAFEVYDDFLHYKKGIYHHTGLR
Target sequence in this assay (P53634 395-463 limits assumed): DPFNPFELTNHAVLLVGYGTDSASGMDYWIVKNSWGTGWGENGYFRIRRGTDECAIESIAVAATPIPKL

[5] = read-out: Avg. IC50 (DPP1 Cell IC50 value ranges)
[6] = activated recombinant human DPP1, 400 μM H-Gly-Arg-AMC, 10 minutes pre-incubation at 37° C., pH 6.0, average of n runs, read-out: Avg. IC50 (Human DPP1 enzyme IC50 value ranges)
[7] = Avg. IC50 (DPP1 Cell IC50 value ranges)

T2 sequence (P53634 25-463): as the sequence (P53634 25-463) above

Row | Compound | inhibition at 0.01 µM (human DPP1 enzyme [1]) | IC50 (DPP1 in HL-60 cells [2]; [5]) | inhibition at 0.005 µM (DPP1 in HL-60 cells [3]) | IC50 (human DPP1 enzyme [4]; [6]) | IC50 (DPP1 in HL-60 cells [2]; [7]) | IC50 (human DPP1 enzyme [4])
1 | N#C[C@H](Cc1ccc(-c2ccc(S(=O)(=O)N3CCC3)cc2)cc1)NC(=O)[C@@H]1CNCCCO1 [Compound 19, (S)—N—((S)-2-(4′-(azetidin-1-ylsulfonyl)-[1,1′-biphenyl]-4-yl)-1-cyanoethyl)-1,4-oxazepane-2-carboxamide] | ≤ 40% | > 2.5 nM | ≤ 76.5% | > 15 nM |  | 
2 | Cn1c(=O)oc2cc3c(cc21)-c1cc(F)c(C[C@@H](C#N)NC(=O)[C@@H]2CNCCCCO2)cc1SC3 [Compound C8] | ≥ 66.7% | 1 to 2.5 nM | ≤ 76.5% | < 5 nM |  | 
3 | C[C@@H]1NC[C@@H](C(=O)N[C@H](C#N)Cc2ccc(-c3ccc4cnn(C)c4c3)cc2F)OC[C@@H]1O [Compound H31] | 40 to 66.7% | 1 to 2.5 nM | ≤ 76.5% | 5 to 15 nM and > 15 nM |  | 
4 | C[C@@H]1NC[C@@H](C(=O)N[C@H](C#N)Cc2ccc(-c3ccc4c(n3)CCCN4)cc2)OC[C@@H]1O [Compound A105] | ≤ 40% | > 2.5 nM | ≤ 76.5% | > 15 nM |  | 
5 | N#Cc1ccc2c(c1)-c1cc(F)c(CC(C#N)NC(=O)[C@@H]3CNCCCO3)cc1OC2 (stereo partly drawn) [Compound B33] | ≤ 40% |  | ≤ 76.5% |  | > 2.5 nM | > 15 nM
6 | CCN1C(=O)Cc2ccc(-c3ccc(C[C@@H](C#N)NC(=O)[C@@H]4CNCCCO4)c(F)c3)cc21 [Compound G12] | 40 to 66.7% | > 2.5 nM and 1 to 2.5 nM | ≤ 76.5% | 5 to 15 nM |  | 
7 | N#Cc1ccc2c(c1)COc1cc(C[C@@H](C#N)NC(=O)[C@@H]3CNCCCO3)c(F)cc1-2 [Compound B32] | 40 to 66.7% |  | 76.5 to 93.9% |  | 1 to 2.5 nM | 5 to 15 nM
8 | N#Cc1ccc2c(c1)CSc1cc(C[C@@H](C#N)NC(=O)[C@@H]3CNCCCCO3)c(F)cc1-2 [Compound B17] | 40 to 66.7% | > 2.5 nM | ≤ 76.5% | 5 to 15 nM |  | 
9 | Cc1ncc(C)n2cc(-c3ccc(C[C@@H](C#N)NC(=O)[C@@H]4CNCCCCO4)cc3)cc12 [Compound A137] | ≤ 40% | 1 to 2.5 nM | 76.5 to 93.9% | > 15 nM |  | 
10 | CCN1C(=O)Cc2ccc(-c3ccc(C[C@@H](C#N)NC(=O)[C@@H]4CNCCCO4)cc3)cc21 [Compound G11] | ≤ 40% | > 2.5 nM | ≤ 76.5% | > 15 nM |  | 
11 | Cn1c(=O)oc2ccc3c(c21)COc1cc(CC(C#N)NC(=O)[C@@H]2CNCCCO2)c(F)cc1-3 (stereo partly drawn) [Compound C29] | ≤ 40% | > 2.5 nM and 1 to 2.5 nM | ≤ 76.5% | > 15 nM |  | 
12 | Cc1nc(C)c2cc(-c3ccc(C[C@@H](C#N)NC(=O)[C@@H]4CNCCCCO4)cc3)cn2c1C [Compound A138] | ≤ 40% | < 1 nM | 76.5 to 93.9% | > 15 nM |  | 
13 | CN1CCC(N2CC[C@]3(COCc4ccc(-c5ccc(C[C@@H](C#N)NC(=O)[C@@H]6CNCCCO6)cc5)cc43)C2)CC1 [Compound I8] | ≥ 66.7% | > 2.5 nM | ≤ 76.5% | 5 to 15 nM |  | 
14 | COC1CNC[C@@H](C(=O)N[C@H](C#N)Cc2ccc(-c3ccc4nnn(C)c4c3)cc2)OC1 (stereo partly drawn) [Compound H12] | ≥ 66.7% | > 2.5 nM and 1 to 2.5 nM | ≤ 76.5% | < 5 nM |  | 
15 | CO[C@H]1CCO[C@H](C(=O)N[C@H](C#N)Cc2ccc(-c3cc4c(C)nc(C)cn4c3)cc2)CNC1 [Compound A92] | ≤ 40% | > 2.5 nM and 1 to 2.5 nM | ≤ 76.5% | > 15 nM |  | 
16 | CO[C@H]1CCO[C@H](C(=O)N[C@H](C#N)Cc2ccc(-c3ccc4c(c3)C3(CCN(C5COC5)CC3)OC4)cc2F)CNC1 [Compound F5] | ≥ 66.7% | 1 to 2.5 nM | ≤ 76.5% | < 5 nM |  | 

Row | Compound | inhibition at 0.01 µM (human DPP1 enzyme [1]) | IC50 (DPP1 in HL-60 cells [2]; [5]) | inhibition at 0.005 µM (DPP1 in HL-60 cells [3]) | IC50 (human DPP1 enzyme [4]; [6]) | IC50 (DPP1 in HL-60 cells [2]; [7]) | IC50 (human DPP1 enzyme [4])
17 | CCN1C(=O)Cc2ccc(-c3ccc(C[C@@H](C#N)NC(=O)[C@@H]4CN[C@@H](C)[C@@H](O)CO4)c(F)c3)cc21 [Compound G10] | 40 to 66.7% | > 2.5 nM | ≤ 76.5% | 5 to 15 nM |  | 
18 | N#C[C@H](Cc1ccc(-c2ccn3ccnc3c2)cc1)NC(=O)[C@@H]1CNCCCO1 [Compound A142] | ≤ 40% | > 2.5 nM | ≤ 76.5% | > 15 nM |  | 
19 | C[C@@H]1NC[C@@H](C(=O)N[C@H](C#N)Cc2ccc(-c3cnc4c(n3)CCCC4)cc2F)OC[C@@H]1O [Compound A109] | 40 to 66.7% | > 2.5 nM and 1 to 2.5 nM | ≤ 76.5% | 5 to 15 nM and < 5 nM |  | 
20 | CO[C@@H]1CCNC[C@@H](C(=O)N[C@H](C#N)Cc2ccc(-c3ccc4cnn(C)c4c3)cc2)OC1 [Compound H5] | ≥ 66.7% | 1 to 2.5 nM | 76.5 to 93.9% | 5 to 15 nM |  | 
21 | CCN1C(=O)Cc2ccc(-c3ccc(C[C@@H](C#N)NC(=O)[C@@H]4CN[C@@H](C)[C@@H](O)CO4)cc3)cc21 [Compound G9] | ≤ 40% | > 2.5 nM | ≤ 76.5% | > 15 nM |  | 
22 | CCCN1CCC2(CC1)SCCc1ccc(-c3ccc(C[C@@H](C#N)NC(=O)[C@@H]4CNCCCO4)cc3)cc12 [Compound I3] | ≥ 66.7% | > 2.5 nM | ≤ 76.5% | 5 to 15 nM |  | 
23 | CO[C@@H]1CCNC[C@@H](C(=O)N[C@H](C#N)Cc2ccc(-c3ccc4c(c3)C3(CCCN(C)C3)C(=O)N4C)cc2)OC1 (stereo partly drawn) [Compound F7] | ≥ 66.7% |  | ≤ 76.5% |  |  | 
24 | CO[C@@H]1CCNC[C@@H](C(=O)N[C@H](C#N)Cc2ccc(-c3ccc(S(=O)(=O)N4CCC4)cc3)cc2F)OC1 [Compound F17] | ≥ 66.7% |  | ≤ 76.5% |  |  | 
25 | CN1CC2(C1)OC(=O)c1ccc(-c3ccc(C[C@@H](C#N)NC(=O)[C@@H]4CNCCCCO4)cc3)cc12 [Compound 37] | ≤ 40% |  | ≤ 76.5% |  |  | 
26 | CO[C@H]1CCO[C@H](C(=O)N[C@H](C#N)Cc2ccc(-c3ccc4nnn(C)c4c3)cc2F)CNC1 [Compound H20] | 40 to 66.7% |  | ≤ 76.5% |  |  | 
27 | COC1CNC[C@@H](C(=O)N[C@H](C#N)Cc2ccc(-c3cnc4c(n3)CCCC4)cc2)OC1 (stereo partly drawn) [Compound A90] | ≥ 66.7% |  | ≤ 76.5% |  |  | 
28 | N#C[C@H](Cc1ccc(-c2ccc(S(=O)(=O)N3CCC3)cc2)cc1F)NC(=O)[C@@H]1CNCCCCO1 [Compound 47] | ≤ 40% |  | ≤ 76.5% |  |  | 
29 | C[C@@H]1NC[C@@H](C(=O)NC(C#N)Cc2cc3c(cc2F)-c2ccc4oc(=O)n(C)c4c2CO3)OC[C@@H]1O (stereo partly drawn) [Compound C23] | 40 to 66.7% |  | ≤ 76.5% |  |  | 
30 | CCN1C(=O)Cc2ccc(-c3ccc(C[C@@H](C#N)NC(=O)[C@@H]4CNCC(OC)CO4)c(F)c3)cc21 (stereo partly drawn) [Compound G4] | ≥ 66.7% |  | ≥ 93.9% |  |  | 
31 | CN1CCCC2(C1)C(=O)N(C)c1ccc(-c3ccc(C[C@@H](C#N)NC(=O)[C@@H]4CNCCCCO4)cc3)cc12 (stereo partly drawn) [Compound 36] | ≤ 40% |  | ≤ 76.5% |  |  | 
32 | CO[C@H]1CCO[C@H](C(=O)NC(C#N)Cc2cc3c(cc2F)-c2ccc4oc(=O)n(C)c4c2CO3)CNC1 (stereo partly drawn) [Compound C17] | 40 to 66.7% |  | ≤ 76.5% |  |  | 
